Measurements from patent US20100062517A1, “In situ production of microbial pigments for metal and actinide immobilization” (priority 2008, published 2010).

Key:
4-HPPD = assay: Pigment production in pure cultures of soil isolates with sulcotrione; type: cell-based, soil isolates (bacteria); settings: sulcotrione 18 μM, LBSM with tyrosine 1 g/l, absorbance 400 nm, relative to no inhibitor
Text: Initial characterization of pigment included intensity of coloration and diffusion through agar media. Dark black non-diffusive pigments are indicative of DOPA melanin whereas reddish brown diffusive pigments are more likely pyomelanin. The chemical sulcotrione (Zeneca Agrochemicals) was used as a specific competitive inhibitor of 4-HPPD, the enzyme required for pyomelanin production. Methods incorporated sulcotrione to determine if pigment production was a result of 4-HPPD. Pure cultures of soil isolates were grown in LBSM and tyrosine (1 g/l) was supplemented to promote pigment production. Sulcotrione (18 μM) was added prior to pigmentation in order to differentiate pyomelanin production from other pigments that may be produced. Pigment production was quantified spectrophotometrically (400 nm) in cell free culture fluid. Controls for comparison were without tyrosine or without sulcotrione.

Tims Branch soil = assay: Field soil columns treated with tyrosine; parameters: species or system indigenous soil bacteria
Procedure: Additionally, the following soil properties were analyzed: percent organic matter by loss-on-ignition at a temperature of 375° C. and pH was determined from a 1:1 mineral/water equilibration solution. Also, total concentration of U in a homogenized soil sample was determined by a total microwave digestion of 0.6 g of homogenized soil material with concentrated acids (10 ml of HNO3, 4 ml of H2SO4, and 2 ml of HCl). The resulting extract solution was analyzed by ICP-MS. Changes in the organic content of soils due to pyomelanin production were also determined by spectrophotometric absorbance (400 nm) of particle free supernatants and Fourier transform infrared (FTIR) spectroscopy. Soil samples were removed (5-10 g/column) 28 days after treatment addition for pore water analysis. Optical density was determined for centrifuged soil to determine the degree of pigmentation resulting from tyrosine amendments. Dried pigments from soil effluents (60° C.) were then further characterized using FTIR spectroscopy and compared to that of pure tyrosine and dihydroxyphenylalanine (DOPA) melanin (Aldrich Chemicals). […] All samples were analyzed using a ThermoElectron Smart Orbit diamond single bounce attenuated total reflectance accessory. […] During field incubation rainfall was measured at 12.1 cm. […] Samples were processed the next day and analyzed for metals and pH.

| SMILES | Pigment production in bacterial cultures (4-HPPD) | U in pore water compared to controls (Tims Branch soil; 30 days after treatment, 10, 30 and 50 cm depths) | Duration of U immobilization (Tims Branch soil; one-time addition of tyrosine to soil) |
| --- | --- | --- | --- |
| CS(=O)(=O)c1ccc(C(=O)C2C(=O)CCCC2=O)c(Cl)c1 [sulcotrione] | halted |  |  |
| N[C@@H](Cc1ccc(O)cc1)C(=O)O [tyrosine] |  | significantly decreased | at least 13 months |
